Laboratory results reported in US7928231B2, “Thienopyrazoles” (priority 2003, dated 2011).

Legend:
[1] = biological target: T1, ITK (Homo sapiens, UniProt Q08881); test: FlashPlate ITK protocol for ITK inhibition determination (ITK autophosphorylation, [γ-33P]ATP); type: biochemical; conditions: MBP-tagged ITK, read-out: IC50 (enzyme inhibition)-
T1 construct: made in house
T1 sequence (Q08881 1-620): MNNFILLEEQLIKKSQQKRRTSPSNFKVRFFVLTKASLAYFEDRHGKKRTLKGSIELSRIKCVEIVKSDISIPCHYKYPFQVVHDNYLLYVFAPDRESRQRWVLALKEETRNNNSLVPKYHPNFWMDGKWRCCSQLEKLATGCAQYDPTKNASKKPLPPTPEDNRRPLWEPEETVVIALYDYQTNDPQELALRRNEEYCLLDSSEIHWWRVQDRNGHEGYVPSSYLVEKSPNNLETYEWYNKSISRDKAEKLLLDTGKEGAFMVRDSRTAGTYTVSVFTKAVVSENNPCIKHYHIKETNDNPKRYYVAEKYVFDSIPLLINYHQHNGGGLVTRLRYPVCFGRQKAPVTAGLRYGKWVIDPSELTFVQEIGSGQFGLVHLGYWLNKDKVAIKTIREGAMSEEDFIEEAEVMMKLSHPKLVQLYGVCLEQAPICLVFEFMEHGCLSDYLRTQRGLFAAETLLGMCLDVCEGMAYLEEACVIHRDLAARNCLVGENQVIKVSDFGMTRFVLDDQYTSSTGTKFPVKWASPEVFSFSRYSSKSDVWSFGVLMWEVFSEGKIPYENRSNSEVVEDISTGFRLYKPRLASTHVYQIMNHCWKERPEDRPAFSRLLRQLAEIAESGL
Procedure: ITK kinase is produced with an N-terminal Maltose Binding Protein tag (MW=˜114 kDa) using a Baculovirus expression system. The transfer of radioactive [γ-^33P] phosphate from [γ-^33P]ATP to ITK during the autophosphorylation of ITK is measured by scintillation counting. Streptavidin-coated FlashPlate Plus™ 384 well microplates (PerkinElmer Life Sciences) are designed for in-plate radiometric assays. The interior of each well is permanently coated with a thin layer of scintillant and a covalently bound layer of Streptavidin. ITK is incubated with [γ-^33P]ATP, biotinylated anti-MBP antibody (Cell Signaling Technology™) and test compounds in a 384-well Streptavidin-coated FlashPlate. The biotinylated anti-MBP binds tightly to the MBP-tagged ITK and cross-links it to Streptavidin on the plate surface. Unreacted ^33P-ATP is washed away and ^33P-phosphorylated ITK is measured when the [γ-^33P] incorporated into ITK stimulates the scintillant on the well to emit light. Radioactivity is assessed in a Packard
TopCount scintillation counter. Reagents are pipetted and dispensed using Beckman Biomek robotic equipment. Test compounds (2 μl per well) are pre-diluted from 1 mM 100% dimethyl sulfoxide solutions into water containing 30% dimethyl sulfoxide to produce dose response curves (10 point curves from (final) 30 μM to ˜1 nM); all tests are performed in duplicate. Background binding is assessed by substituting the enzyme inhibitor EDTA (25 mM final concentration) for test compound and maximal binding is assessed by inclusion of assay buffer instead of compound. Test compounds are added to the wells first (2 μl) followed by 10 μl enzyme solution in assay buffer. After 30 minutes pre-incubation, all other reagents are added in a 10 μl volume. The final reagent concentrations/well are as follows: 20 nM enzyme, 0.25 μCi [γ-^33P]ATP, assay buffer: 20 mM HEPES (pH 7.5), 0.15 M NaCl, 3 mM MgCl2, 3 mM MnCl2, 0.01% Triton X-100, 1 mM DTT, 5% glycerol and 0.01% γ-globulin. The plate is incubated at room temperature (RT) for 60 minutes for the kinase reaction. The reaction is stopped with 20 μl of 50 mM EDTA and the biotinylated anti-MBP is allowed to bind to the ITK and the Streptavidin for a further 60 minutes at RT. The unbound reagents are washed away with 2×100 μl phosphate-buffered saline (PBS). Radioactivity is measured for 45 sec/well.

- melting point: 234 to 236 °C
- IC50 [1]: 224 nM
Compound: COc1ccc2[nH]c(-c3n[nH]c4ccsc34)cc2n1 [Example 60, 5-Methoxy-2-(1H-thieno[3,2-c]pyrazol-3-yl)-1H-pyrrolo[3,2-b]pyridine]
